Laboratory results published in ChEMBL document CHEMBL6103639, “Structure-Based Development of 3,4-Fused Tricyclic Benzofuran Derivatives as Polyketide Synthase 13 Inhibitors with Negligible hERG Inhibition” (J Med Chem, 2025).

What was measured:
Assay type in all cases: functional
[1] = test system: Mycobacterium tuberculosis; assay: Antitubercular activity against Mycobacterium tuberculosis D1644G mutant assessed as reduction in microbial growth by microplate alamar blue assay
[2] = test system: Mycobacterium tuberculosis; assay: Antitubercular activity against Mycobacterium tuberculosis A1667V mutant assessed as reduction in microbial growth by microplate alamar blue assay
[3] = test system: Mycobacterium tuberculosis; assay: Antitubercular activity against Mycobacterium tuberculosis N1640S mutant assessed as reduction in microbial growth by microplate alamar blue assay
[4] = test system: Mycobacterium tuberculosis; assay: Antitubercular activity against Mycobacterium tuberculosis N1640K mutant assessed as reduction in microbial growth by microplate alamar blue assay

Row | Structure (SMILES) | MIC [1] [µg/mL] | MIC [2] [µg/mL] | MIC [3] [µg/mL] | MIC [4] [µg/mL]
1 | CN1CN(C2CCCC2)Cc2c(O)ccc3oc(-c4ccc(O)cc4)c(c23)C1=O | >64 | 32 | >64 | >64
2 | CN1CN(CC2CC2)Cc2c(O)ccc3oc(-c4ccc(O)cc4)c(c23)C1=O | >64 | >64 | >64 | >64
3 | CN1CN(CC2CCC2)Cc2c(O)ccc3oc(-c4ccc(O)cc4)c(c23)C1=O | >64 | 8 | >64 | >64
